Entries after “also recorded” stand apart in the source; their conditions may differ.
Experiments:
[1] = tested on: C-myc in KF-28 cells; assay: Western blot of C-myc expression; format: cell-based, human; conditions: two days, vs DMSO
Excerpt: Pim-1 has been classified as a weak oncogene. However, a very strong synergism with regard to tumorigenicity occurs between Pim-1 and C-myc. This synergism is observed with bitransgenic mice overexpressing C-myc and Pim-1 in lymphoid tissue ([Möröy et al., 1991]). To further validate the simulation and docking data which introduced Pim-1 kinase as a potential target molecule for some of the tested compounds, we decided to check the effect of treatment with the selected compounds on the C-myc protein expression as a downstream target molecule known to be phosphorylated and stabilized by Pim-1 as a kinase ([Zhang et al., 2008]). […] Taking into consideration the fact that Pim-1 phosphorylates C-myc and controls its stability ([Zhang et al., 2008]) may conclude that the reduction of C-myc expression under the indicated compounds is due to the inhibition of Pim-1 activity (Figure 3). Therefore, the speculated inhibition of Pim-1 is supported by the above-mentioned qPCR data (Figure 3) and further supported by C-myc downregulation. Our results agree with the reported one which states that some thiazole derivatives are potent inhibitors against protein kinases including Pim-1 kinase ([Mohareb et al., 2019]).
Cell lysates were prepared by lysing cells in RIPA buffer (10 mM Tris (pH 7.4), 150 mM NaCl, 1% Triton X-100, 1% Na deoxycholate), supplemented with protease inhibitor cocktail (Sigma). Protein concentration of whole cell lysates was determined by the […] using the BSA kit (Pierce), and then equal protein amounts were heated to 95 °C for 5 min with sodium dodecyl sulfate (SDS) sample buffer (25 ml glycerol, 31.2 ml Tris buffer, 7.5 ml SDS, a dash of bromophenol blue/100 ml) and run on 15% SDS polyacrylamide gel electrophoresis (SDS-PAGE). Protein samples were then blotted onto PVDF membranes (Immobilon P, Watford, United Kingdom). The membranes were incubated in blocking solution (5% non-fat milk in PBS) for 1 h and then in primary antibody (anti-human C-myc pAb (Abcam; at dilution of 2:1,000) or GAPDH mAb (Santa Cruz; at dilution of 20:1,000)) overnight. After 3 × 10 min washes in TBS (0.1% Tween-20 in PBS), the membrane was incubated for 1 h at room temperature with horseradish-peroxidase–linked (HRP) secondary anti-rabbit or anti-mouse Ab (1:1,000 dilution in PBS). Signals on the membrane were developed using ECL reagent (Amersham, CA, United States) and then were imaged with the Chemidoc system (Bio-Rad, United States).

[2] = tested on: KF-28 cells; assay: Annexin V-FITC/PI apoptosis assessment; format: cell-based, human; conditions: 48 h, cisplatin 10 μM, DMSO control 0.45%
Protocol: Therefore, we decided to use such technique to investigate if the cytotoxic effect of the compounds indicated by MTT and the cell cycle experiments is apoptotic cell death or not. For that purpose, two cell lines, KF-28 and A2780, were stained by annexin V/PI after treatment with different compounds vs. DMSO for two days in parallel with cisplatin as a reference drug. Results from annexin staining analysis show appreciated annexin V–stained populations when cells are treated with compounds 5a–c, 5f, and 9. […] Similar results were obtained from the other cell line, A2780, treated with the same compounds (Figure 2B).
The cells were seeded into six-well culture plates (3–5 × 10^5 cells/well) and incubated overnight at 37°C, under 5% CO2. The cells were then treated with indicated compounds for 48 h. Next, media supernatants and the cells were collected and washed with ice-cold PBS. Next, the cells were stained with PI (10 mg/ml) for 30 min and analyzed for DNA contents using flow cytometry analysis using an FL2 (λex/em 535/617 nm) signal detector (ACEA Novocyte™ flow cytometer, ACEA Biosciences, Inc., San Diego, CA, United States). For each sample, 12,000 events are acquired. Cell cycle distribution is calculated using a CytoFLex machine and analyzed by CytExpert software. Flow cytometric methodologies (annexin V/PI staining with cell cycle analyses) are carried out as previously described ([Nafie et al., 2020a]; [Nafie et al., 2020b]; [Gad et al., 2020]).

[3] = tested on: MDA-MB-231 breast cancer cells; assay: MTT cytotoxicity assay, MDA-MB-231; format: cell-based; conditions: Homo sapiens, MDA-MB-231; MTT, 72 h, n = 3; read-out: IC50 MDA-MB-231 (Breast)
Protocol: The synthesized derivatives were screened for their cytotoxic activities against five cancer cell lines (two breast cancer cell lines: MCF-7 and MDA-MB-231, two ovarian cancer cell lines: A2780 and KF-28, and one cervical cancer cell line: Hela). This study was performed using serial concentrations of 25, 50, 100, 150, and 200 µM of each compound using the MTT assay. Percentages of cell viability of the tested compounds with serial concentration against the tested panel of cell lines are depicted in Figure 1, in which there is a decrease in the cell viability with increasing concentrations in a dose–response pattern. […] Therefore, compounds 5a, 5b, and 5f were thought worthwhile to further investigate their effects as either cytotoxic or antiproliferative effects and whether any of them is an inducer of apoptotic cell death in the representative cancer cell lines KF-28 and A2780.
The human ovarian serous carcinoma cell line KF-28 was kindly provided by Prof. Yoshihiro Kikuchi (Department of Obstetrics and Gynecology, National Defense Medical College, Saitama, Japan), and A2780 cell line was purchased from the ECACC (ECACC 93112519). The cells were maintained in RPMI-1640 (Sigma-Aldrich, United States). The cervical cancer cell line, Hela cells, breast cancer cell line, MCF-7, and MDA-MB-231 were purchased from the ATCC and cultured in DMEM. Both types of media were supplemented with 2 mM L-glutamine (Lonza, Belgium), 10% FBS (Sigma, St. Louis, MO, United States), and 1% penicillin/streptomycin (Lonza, Belgium). All cells were incubated at 37°C in 5% CO2 atmosphere (NuAire). All cancer cell lines were cultured according to the routine tissue culture work as discussed by the Freshney group ([Freshney, 2010]). The cells were plated at a density of 5,000 cells in triplicates in a 96-well plate. On the next day, the cells were treated with the indicated compound(s) at the indicated concentrations in a final volume of 100 μL media. Cell viability was assessed after 72 h using MTT solution (Promega) ([Mosmann, 1983]). 20 μL of the reagent was added to each well, the plate was incubated for 3 h, […] was subsequently measured (570 nm) using a plate reader, and then the IC50 values were calculated using Excel ([Tantawy et al., 2020]).

SMILES | C-myc protein expression (Western blot) [1] | Total apoptotic cell death (annexin V-positive cells) [2] | IC50 [3]
Cc1[nH]c(=NN=C2CCC(=NN=c3[nH]c(C)c(N=Nc4ccccc4)s3)CC2)sc1N=Nc1ccccc1 [5a, 1,4-Bis((5-phenylazo-4-methylthiazol-2-ylidene)hydrazono)cyclohexane] | observable downregulation | 38.21% | 
Cc1ccc(N=Nc2sc(=NN=C3CCC(=NN=c4[nH]c(C)c(N=Nc5ccc(C)cc5)s4)CC3)[nH]c2C)cc1 [5b, 1,4-Bis((5-(4-tolylazo)-4-methylthiazol-2-ylidene)hydrazono)cyclohexane] | observable downregulation; also recorded: Appreciated downregulation | 18.77% | > 200 µM
Cc1[nH]c(=NN=C2CCC(=NN=c3[nH]c(C)c(N=Nc4ccccc4Cl)s3)CC2)sc1N=Nc1ccccc1Cl [5f, 1,4-Bis((5-(2-chlorophenylazo)-4-methylthiazol-2-ylidene)hydrazono)cyclohexane] | observable downregulation; also recorded: Appreciated downregulation |  | > 200 µM
